Assays:
Assay type in all cases: functional, cell-based
[1] = target: T1, Excitatory amino acid transporter 3 (Homo sapiens, UniProt P43005); assay: Inhibition of human EAAT3 expressed in HEK293 cells by FLIPR membrane potential assay
T1 sequence (P43005 whole entry): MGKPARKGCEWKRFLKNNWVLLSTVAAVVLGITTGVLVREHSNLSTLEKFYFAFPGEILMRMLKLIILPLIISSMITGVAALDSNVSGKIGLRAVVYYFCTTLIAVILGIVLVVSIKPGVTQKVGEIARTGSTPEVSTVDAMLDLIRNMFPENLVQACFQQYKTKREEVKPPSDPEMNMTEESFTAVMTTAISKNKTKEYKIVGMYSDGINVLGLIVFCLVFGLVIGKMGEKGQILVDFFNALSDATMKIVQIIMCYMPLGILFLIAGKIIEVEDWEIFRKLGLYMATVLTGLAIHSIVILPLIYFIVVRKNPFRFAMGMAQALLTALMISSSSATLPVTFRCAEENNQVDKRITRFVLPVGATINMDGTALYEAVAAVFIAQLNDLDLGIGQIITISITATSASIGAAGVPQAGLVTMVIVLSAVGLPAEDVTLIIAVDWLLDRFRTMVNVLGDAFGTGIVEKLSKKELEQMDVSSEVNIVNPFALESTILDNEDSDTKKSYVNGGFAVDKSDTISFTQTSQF

[2] = target: Excitatory amino acid transporter 2 (Homo sapiens, UniProt P43004); assay: Inhibition of human EAAT2 expressed in HEK293 cells by FLIPR membrane potential assay
[3] = target: Excitatory amino acid transporter 1 (Homo sapiens, UniProt P43003); assay: Inhibition of human EAAT1 expressed in HEK293 cells by FLIPR membrane potential assay
Sequence of Excitatory amino acid transporter 1 (P43003 whole entry): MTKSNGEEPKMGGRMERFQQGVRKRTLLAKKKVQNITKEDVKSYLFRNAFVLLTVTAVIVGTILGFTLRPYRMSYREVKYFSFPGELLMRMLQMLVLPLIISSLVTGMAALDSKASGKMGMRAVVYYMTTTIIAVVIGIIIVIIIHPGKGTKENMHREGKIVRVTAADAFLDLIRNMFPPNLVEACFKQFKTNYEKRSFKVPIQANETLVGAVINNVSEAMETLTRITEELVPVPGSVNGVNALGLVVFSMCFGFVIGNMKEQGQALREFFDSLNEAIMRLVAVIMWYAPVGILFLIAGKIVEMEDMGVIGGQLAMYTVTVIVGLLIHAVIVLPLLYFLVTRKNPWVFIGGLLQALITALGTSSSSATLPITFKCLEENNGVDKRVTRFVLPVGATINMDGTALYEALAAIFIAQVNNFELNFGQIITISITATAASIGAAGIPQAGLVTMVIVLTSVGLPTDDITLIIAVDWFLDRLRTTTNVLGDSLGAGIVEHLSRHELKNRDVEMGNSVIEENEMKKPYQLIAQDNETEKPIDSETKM

Sequence of Excitatory amino acid transporter 2 (P43004 whole entry): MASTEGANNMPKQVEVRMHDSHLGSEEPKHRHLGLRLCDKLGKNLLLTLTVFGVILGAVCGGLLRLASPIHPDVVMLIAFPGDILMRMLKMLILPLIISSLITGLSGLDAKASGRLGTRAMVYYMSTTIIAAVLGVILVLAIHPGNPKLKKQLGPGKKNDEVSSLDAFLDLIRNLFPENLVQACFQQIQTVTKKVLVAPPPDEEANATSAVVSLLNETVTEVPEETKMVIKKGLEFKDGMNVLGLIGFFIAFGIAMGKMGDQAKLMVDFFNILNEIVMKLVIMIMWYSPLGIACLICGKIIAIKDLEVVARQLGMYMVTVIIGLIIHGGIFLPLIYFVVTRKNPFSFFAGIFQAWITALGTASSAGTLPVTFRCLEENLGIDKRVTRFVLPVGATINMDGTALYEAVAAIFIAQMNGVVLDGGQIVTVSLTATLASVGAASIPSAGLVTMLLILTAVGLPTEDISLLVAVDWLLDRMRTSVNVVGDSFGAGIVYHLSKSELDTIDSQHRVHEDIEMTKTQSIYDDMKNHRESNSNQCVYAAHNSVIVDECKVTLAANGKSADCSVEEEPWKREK

Ki [1] [µM] | Ki [2] [µM] | Ki [3] [µM] | Structure (SMILES)
49 | 22 | – | N[C@H](C(=O)O)[C@@H]1CC[C@H]1C(=O)O
10 | 6.6 | 200 | N[C@H](C(=O)O)[C@@H]1CC[C@@H]1C(=O)O

Reference: ChEMBL document CHEMBL1137310, “Stereoselective chemoenzymatic synthesis of the four stereoisomers of l-2-(2-carboxycyclobutyl)glycine and pharmacological characterization at human excitatory amino acid transporter subtypes 1, 2, and 3” (J Med Chem, 2006)
